# Data as given in ChEMBL document CHEMBL3046056, “Design, synthesis, and biological activity of novel 4-(3,4-dimethoxyphenyl)-2-methylthiazole-5-carboxylic acid derivatives” (2004).
# Tests used:
# Type in all cases: functional
# Empoasca fabae [1] = experiment: Insecticidal activity against Empoasca fabae (potato leafhopper) at 600 g ai/ha
# Myzus persicae [2] = experiment: Insecticidal activity against Myzus persicae (green peach aphid) at 600 g ai/ha
# Phytophthora infestans [3] = experiment: Fungicidal activity against tomato late blight disease-causing Phytophthora infestans at 375 g ai/ha
# Phytophthora infestans [4] = experiment: Fungicidal activity against tomato late blight disease-causing Phytophthora infestans at 300 g ai/ha
# Myzus persicae [5] = experiment: Insecticidal activity against Myzus persicae (green peach aphid) at 300 g ai/ha
# Empoasca fabae [6] = experiment: Insecticidal activity against Empoasca fabae (potato leafhopper) at 300 g ai/ha
SMILES,Activity (Empoasca fabae [1]) [%],Activity (Myzus persicae [2]) [%],Activity (Phytophthora infestans [3]) [%],Activity (Phytophthora infestans [4]) [%],Activity (Myzus persicae [5]) [%],Activity (Empoasca fabae [6]) [%]
COC(=O)c1sc(C)nc1-c1ccc(OC)c(OC)c1,40,0,0,,,
COc1ccc(-c2nc(C)sc2C(=O)O)cc1OC,20,0,0,,,
COc1ccc(-c2nc(C)sc2C(=O)N2CCOCC2)cc1OC,20,20,90,,,
CCN(C)C(=O)c1sc(C)nc1-c1ccc(OC)c(OC)c1,40,40,0,,,
COc1ccc(-c2nc(C)sc2C(=O)N(C)OC)cc1OC,20,20,50,,,
COc1ccc(-c2nc(C)sc2C(=O)NCC#N)cc1OC,0,0,0,,,
CCN(CC)C(=O)c1sc(C)nc1-c1ccc(OC)c(OC)c1,40,0,0,,,
COc1ccc(-c2nc(C)sc2C(=O)NCCCn2ccnc2)cc1OC,0,0,75,,,
C#CC(C)(C)NC(=O)c1sc(C)nc1-c1ccc(OC)c(OC)c1,40,60,0,,,
C#CC(C)(CC)NC(=O)c1sc(C)nc1-c1ccc(OC)c(OC)c1 (stereo not drawn),0,20,90,,,
COc1ccc(-c2nc(C)sc2C(=O)Nc2ccccc2)cc1OC,40,20,0,,,
COc1ccc(-c2nc(C)sc2C(N)=O)cc1OC,20,0,0,,,
C#CCOC(=O)c1sc(C)nc1-c1ccc(OC)c(OC)c1,20,20,0,,,
COc1ccc(-c2nc(C)sc2C(=O)OCC(C)C)cc1OC,20,20,75,,,
COc1ccc(C(=CC(=O)N2CCOCC2)c2ccc(Cl)cc2)cc1OC [DIMETHOMORPH],,,,100,0,0
COc1ccc(/C(=C\C(=O)N2CCOCC2)c2ccc(F)cc2)cc1OC [FLUMORPH],,,,100,0,0
